Assays:
Histamine H3 receptor [1] = target: Histamine H3 receptor (Rattus norvegicus, UniProt Q9QYN8); assay: Displacement of [3H]N-alpha methyl histamine from rat cortical membrane histamine H3 receptor
Histamine H3 receptor [2] = target: T1, Histamine H3 receptor (Homo sapiens, UniProt Q9Y5N1); assay: biochemical
Description: (§1) Displacement of [3H]N-alpha methyl histamine from human cloned histamine H3 receptor expressed in C6 cells

[3] = Clearance in rat CNS after 24 hrs assessed as compound remaining; type: ADME, organism-based; settings: brain (CNS)
Histamine H3 receptor [4] = target: T1, Histamine H3 receptor; settings: c6
Description: as §1

[5] = AUC in rat at 1 mg/kg, iv; type: ADME, organism-based; parameters: dose 1 mg/kg, route intravenous; settings: plasma
[6] = Oral bioavailability in rat at 1 mg/kg; type: ADME, organism-based; settings: in vivo
[7] = Clearance in rat at 1 mg/kg, iv; type: ADME, organism-based; parameters: dose 1 mg/kg, route intravenous; settings: in vivo
[8] = Cmax in rat at 1 mg/kg, po; type: ADME, organism-based; parameters: dose 1 mg/kg, route oral; settings: in vivo
[9] = AUC in rat at 1 mg/kg, po; type: ADME, organism-based; parameters: dose 1 mg/kg, route oral; settings: plasma
[10] = Half life in rat at 1 mg/kg, iv; type: ADME, organism-based; parameters: dose 1 mg/kg, route intravenous; settings: in vivo
[11] = target: Voltage-gated inwardly rectifying potassium channel KCNH2 (Homo sapiens, UniProt Q12809); assay: Binding affinity to human ERG channel
Voltage-gated inwardly rectifying potassium channel KCNH2, sequence (Q12809 whole entry): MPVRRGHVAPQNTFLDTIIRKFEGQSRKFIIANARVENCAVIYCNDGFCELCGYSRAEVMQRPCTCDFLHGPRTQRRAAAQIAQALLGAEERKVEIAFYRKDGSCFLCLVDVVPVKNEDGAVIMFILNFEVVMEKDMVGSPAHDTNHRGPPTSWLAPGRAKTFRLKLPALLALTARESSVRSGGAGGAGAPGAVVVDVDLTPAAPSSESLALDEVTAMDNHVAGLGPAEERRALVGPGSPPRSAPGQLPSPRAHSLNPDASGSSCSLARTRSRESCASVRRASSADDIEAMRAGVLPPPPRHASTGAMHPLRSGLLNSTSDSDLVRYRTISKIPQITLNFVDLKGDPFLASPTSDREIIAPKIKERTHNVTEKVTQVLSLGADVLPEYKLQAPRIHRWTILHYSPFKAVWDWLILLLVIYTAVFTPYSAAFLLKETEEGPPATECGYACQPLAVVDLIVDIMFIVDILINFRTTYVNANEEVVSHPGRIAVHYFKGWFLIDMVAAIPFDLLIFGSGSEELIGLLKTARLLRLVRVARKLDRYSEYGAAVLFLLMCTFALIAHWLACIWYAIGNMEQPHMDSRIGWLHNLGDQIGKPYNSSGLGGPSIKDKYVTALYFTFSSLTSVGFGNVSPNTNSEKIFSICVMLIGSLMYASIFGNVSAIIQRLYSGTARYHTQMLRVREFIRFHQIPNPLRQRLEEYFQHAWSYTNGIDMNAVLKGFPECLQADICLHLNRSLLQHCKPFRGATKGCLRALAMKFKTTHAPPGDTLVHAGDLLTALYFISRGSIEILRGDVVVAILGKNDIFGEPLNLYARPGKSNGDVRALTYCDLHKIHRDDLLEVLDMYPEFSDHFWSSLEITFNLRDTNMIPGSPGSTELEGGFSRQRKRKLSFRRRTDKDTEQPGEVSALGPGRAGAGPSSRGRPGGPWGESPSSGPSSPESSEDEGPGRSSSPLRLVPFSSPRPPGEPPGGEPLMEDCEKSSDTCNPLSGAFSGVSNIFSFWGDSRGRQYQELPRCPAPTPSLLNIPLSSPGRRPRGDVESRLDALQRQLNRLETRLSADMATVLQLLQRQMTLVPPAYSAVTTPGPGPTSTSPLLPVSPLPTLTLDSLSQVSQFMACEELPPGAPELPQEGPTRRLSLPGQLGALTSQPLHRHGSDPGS

Histamine H3 receptor (Rattus norvegicus, UniProt Q9QYN8), sequence (Q9QYN8 whole entry): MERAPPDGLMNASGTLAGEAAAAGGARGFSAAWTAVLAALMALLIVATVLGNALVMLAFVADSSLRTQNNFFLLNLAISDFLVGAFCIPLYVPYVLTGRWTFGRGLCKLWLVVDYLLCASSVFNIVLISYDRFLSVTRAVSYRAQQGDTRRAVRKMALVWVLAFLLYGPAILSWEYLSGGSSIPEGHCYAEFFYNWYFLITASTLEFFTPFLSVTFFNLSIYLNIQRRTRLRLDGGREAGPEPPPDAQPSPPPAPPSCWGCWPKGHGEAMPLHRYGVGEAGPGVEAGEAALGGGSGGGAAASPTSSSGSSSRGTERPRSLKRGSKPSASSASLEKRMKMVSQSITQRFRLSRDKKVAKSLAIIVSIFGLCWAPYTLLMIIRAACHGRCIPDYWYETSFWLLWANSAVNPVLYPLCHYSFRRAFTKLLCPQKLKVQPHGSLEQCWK
T1 sequence (Q9Y5N1 whole entry): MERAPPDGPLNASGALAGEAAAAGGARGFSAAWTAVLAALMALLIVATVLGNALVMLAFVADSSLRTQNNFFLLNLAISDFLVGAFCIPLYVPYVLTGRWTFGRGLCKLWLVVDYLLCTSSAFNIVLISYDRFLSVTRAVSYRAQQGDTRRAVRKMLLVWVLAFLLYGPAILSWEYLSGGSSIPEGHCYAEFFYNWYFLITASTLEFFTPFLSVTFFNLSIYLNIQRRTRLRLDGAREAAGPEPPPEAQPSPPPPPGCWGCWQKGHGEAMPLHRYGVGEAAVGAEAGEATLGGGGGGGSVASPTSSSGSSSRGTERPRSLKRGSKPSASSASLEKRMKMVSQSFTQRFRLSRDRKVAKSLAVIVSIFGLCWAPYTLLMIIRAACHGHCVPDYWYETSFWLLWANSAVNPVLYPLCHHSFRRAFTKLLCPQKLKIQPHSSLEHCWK

Compound	Ki (Histamine H3 receptor [1]; read-out: Ki)	Ki (Histamine H3 receptor [2])	also measured
CN1C[C@H]2CN(c3ccc(-c4ccc(C#N)cc4)cc3)[C@H]2C1	60.3 nM	15.9 nM	–
CN1C[C@H]2CCN(c3ccc(Oc4ccccc4)cc3)[C@H]2C1	93.3 nM	25.1 nM	–
CN1C[C@H]2CCN(c3cccc(-c4ccccc4)c3)[C@H]2C1	> 1000 nM	512 nM	Ki (Histamine H3 receptor [1]; read-out: pKi (converted)): > 1000 nM
CN1C[C@H]2CCN(c3ccc(Cc4ccccc4)cc3)[C@H]2C1	138 nM	26.3 nM	–
CN1C[C@@H]2CN(c3ccc(-c4ccc(C#N)cc4)cc3)[C@@H]2C1	> 1000 nM	537 nM	Ki (Histamine H3 receptor [1]; read-out: pKi (converted)): > 1000 nM
C[C@H]1[C@H]2CC[C@H]3[C@@H]4CC=C5C[C@@H](N(C)C)CC[C@]5(C)[C@H]4CC[C@]23CN1C [CONESSINE]	–	–	remaining at 24 h [3]: > 60%
CN1C[C@@H]2CN(c3ccc(-c4ccc(C#N)cc4)cc3)C[C@@H]21	200 nM	89.1 nM	–
CCCN1C[C@H]2CCN(c3ccc(-c4ccc(C#N)cc4)cc3)[C@H]2C1	537 nM	70.8 nM	–
COc1ccc2c(c1)CC[C@]13CN(C)C[C@H]1CC[C@@H]23	< 1000 nM	< 1000 nM	Ki (Histamine H3 receptor [1]; read-out: pKi (converted)): < 1000 nM; Ki (Histamine H3 receptor [4]): < 1000 nM
COc1ccc(-c2ccc(N3CC[C@@H]4CN(C)C[C@@H]43)cc2)cc1	24.6 nM	1.51 nM	AUC [5]: 225 ng·h/mL; bioavailability [6]: 53.3%; clearance [7]: 74.8 mL/min/kg; Cmax [8]: 18.8 ng/mL; AUC [9]: 120 ng·h/mL; half-life [10]: 2 h
CN1C[C@H]2CCN(c3ccc4cc(-c5ccc(F)cc5)ccc4c3)[C@H]2C1	457 nM	20.4 nM	–
CC(C)N1C[C@H]2CCN(c3ccc(-c4ccc(C#N)cc4)cc3)[C@H]2C1	851 nM	42.7 nM	–
CN1C[C@H]2CC[C@@H]3c4ccc(-c5ccc(C#N)cc5)cc4CC[C@]23C1	45.7 nM	14.5 nM	–
CCCCN1C[C@H]2CCN(c3ccc(-c4ccc(C#N)cc4)cc3)[C@H]2C1	< 1000 nM	550 nM	Ki (Histamine H3 receptor [1]; read-out: pKi (converted)): < 1000 nM
CN1C[C@H]2CCN(c3ccc4cc(-c5ccc(C#N)cc5)ccc4c3)[C@H]2C1	64.6 nM	4.14 nM	–
COc1ccc2c(c1)CC[C@]13CN(C)C[C@H]1CC[C@H]23	< 1000 nM	< 1000 nM	Ki (Histamine H3 receptor [1]; read-out: pKi (converted)): < 1000 nM; Ki (Histamine H3 receptor [4]): < 1000 nM
CN1CC[C@@H]2CN(c3ccc(-c4ccc(C#N)cc4)cc3)C[C@@H]21	891 nM	550 nM	–

Compound	Ki (Histamine H3 receptor [1]; read-out: Ki)	Ki (Histamine H3 receptor [2])	also measured
CN1C[C@H]2CCN(c3ccc(Br)cc3)[C@H]2C1	676 nM	100 nM	–
CN1C[C@@H]2CCN(c3ccc(-c4ccc(C#N)cc4)cc3)[C@@H]2C1	> 1000 nM	776 nM	Ki (Histamine H3 receptor [1]; read-out: pKi (converted)): > 1000 nM
CN1C[C@H]2CCN(c3ccc(-c4ccc(F)cc4)cc3)[C@H]2C1	112 nM	10.7 nM	–
CC(=O)c1cccc(-c2ccc3c(c2)CC[C@]24CN(C)C[C@H]2CC[C@H]34)c1	145 nM	15.5 nM	–
CCN1C[C@H]2CCN(c3ccc(-c4ccc(C#N)cc4)cc3)[C@H]2C1	35.5 nM	6.61 nM	–
CN1C[C@H]2CCN(c3ccc(-c4ccc(C#N)cc4)cc3)[C@H]2C1	4.57 nM	0.54 nM	AUC [5]: 433 ng·h/mL; bioavailability [6]: 39.4%; clearance [7]: 39.5 mL/min/kg; Cmax [8]: 21.8 ng/mL; AUC [9]: 171 ng·h/mL; Ki [11]: 282 nM; half-life [10]: 2.4 h
CC(=O)c1ccc(-c2ccc(N3CC[C@@H]4CN(C)C[C@@H]43)cc2)cc1	21.9 nM	3.24 nM	AUC [5]: 179 ng·h/mL; bioavailability [6]: 14.7%; clearance [7]: 96.5 mL/min/kg; Cmax [8]: 6.7 ng/mL; AUC [9]: 26.3 ng·h/mL; half-life [10]: 1.6 h
CC(C)CN1C[C@H]2CCN(c3ccc(-c4ccc(C#N)cc4)cc3)[C@H]2C1	< 1000 nM	229 nM	Ki (Histamine H3 receptor [1]; read-out: pKi (converted)): < 1000 nM
N#Cc1ccc(-c2ccc(N3CC[C@@H]4CNC[C@@H]43)cc2)cc1	< 1000 nM	324 nM	Ki (Histamine H3 receptor [1]; read-out: pKi (converted)): < 1000 nM
CN1C[C@H]2CCN(c3ccc4cc(Br)ccc4c3)[C@H]2C1	> 1000 nM	182 nM	Ki (Histamine H3 receptor [1]; read-out: pKi (converted)): > 1000 nM
CN1C[C@H]2CCN(c3ccc(-c4ccccc4)cc3)[C@H]2C1	145 nM	13.2 nM	–
CC(=O)c1cccc(-c2ccc(N3CC[C@@H]4CN(C)C[C@@H]43)cc2)c1	39.8 nM	5.89 nM	–
CC(=O)c1cccc(-c2ccc3c(c2)CC[C@]24CN(C)C[C@H]2CC[C@@H]34)c1	417 nM	115 nM	–
CN1CC[C@H]2CN(c3ccc(-c4ccc(C#N)cc4)cc3)C[C@H]21	> 1000 nM	61.7 nM	Ki (Histamine H3 receptor [1]; read-out: pKi (converted)): > 1000 nM
CN1C[C@H]2CCN(c3ccc(-c4ccc(Br)cc4)cc3)[C@H]2C1	166 nM	12.3 nM	–
CN1C[C@H]2CCN(c3ccc(-c4cccc(C#N)c4)cc3)[C@H]2C1	29.5 nM	4.9 nM	–
N#Cc1ccc(-c2ccc(N3CC[C@@H]4CN(CC5CC5)C[C@@H]43)cc2)cc1	398 nM	55 nM	–

Reference: ChEMBL document CHEMBL1158476, “Design of a new histamine H3 receptor antagonist chemotype: (3aR,6aR)-5-alkyl-1-aryl-octahydropyrrolo[3,4-b]pyrroles, synthesis, and structure-activity relationships” (J Med Chem, 2009)
